Laboratory results from patent US7098304B1, “Assay for the diagnosis of schizophrenia based on a new peptide” (Yeda Research and Development Co. Ltd., priority 1998, dated 2006).

Legend:
[1] = system: SDAs (schizophrenic derived antibodies); experiment: Reactivity of proteins to SDAs (platelet autoantibodies from schizophrenic patients), blot with anti-human Fc-HRP; type: binding; conditions: number of SDA samples that reacted positively with the enzyme, of 8 patients
Protocol: (§1) 1. Platelets and Anti-Platelet Autoantibodies Venous blood (20 ml) was drawn with heparin as anticoagulant from patients and control subjects. Platelet rich plasma (PRP) was obtained by centrifugation (100 g for 20 mins) at room temperature. Plasma free platelets were obtained by washing them three times with phosphate buffered saline (PBS) supplemented with 10 ml mM EDTA as anticoagulant (4000 g; 15 mins; 4° C.). For the isolation of anti-platelet antibodies, the platelets were incubated with 0.1 M glycine/10 mM EDTA, pH 2.8, for 10 min. at room temperature and then centrifuged (4000 g; 15 min; 4° C.). The supernatant containing the anti-platelet antibodies, was neutralized with saturated Na2PO4 solution and stored at −20 until use. 2. Preparative Isoelectric Focusing
(§2) The fractions were analyzed for immuno-reactivity by polyacrylamide (10%) gel electrophoresis, blotting the proteins onto PVDF membranes and probing the membrane with 1 ml auto-antibodies in 50 ml incubation buffer. Anti-human Fc conjugated to horseradish peroxidase (goat) from SIGMA (1:500 dilution) and Fast-DAB™ (SIGMA) or 4-Chloro-naphthol (SIGMA) were used as color reagent in order to detect bound human anti-platelet antibodies.
(§3) Every fifth fraction (0.1 ml) was dot blotted onto PVDF membranes using the DotBlot device (96 wells) from BioRad. Immuno-reactive fractions were then detected as described above (1.3)
(§4) The binding activity of the above two enzymes was then tested by reacting them with SDAs (prepared from samples obtained from schizophrenic patients) and to NSDA (prepared from control non-schizophrenic individuals).

[2] = system: NSDAs (non-schizophrenic derived antibodies); experiment: Reactivity of proteins to NSDAs (platelet autoantibodies from control non-schizophrenic individuals), blot with anti-human Fc-HRP; type: binding; conditions: number of NSDA samples that reacted positively with the enzyme, of 8 controls
Protocol: as §1, §2, §3, §4

[3] = system: SDAs as compared to NSDAs; experiment: Binding activity of peptides line-blotted onto PVDF to SDAs as compared to NSDAs; parameters: species or system human; key to Activity: showed a substantially higher binding activity to SDAs as compared to their binding to NSDAs (indicated as YES in the table); No: showed no significant differences in their binding to samples from schizophrenic and non-schizophrenic individuals (designed as no in the table); conditions: for Activity: binding to SDAs versus NSDAs
Protocol: as §1, §2
(§5) Various peptides were synthesized on Abimed 522 at a 10 micromol scale by Eurosequence b.v. Peptides were routinely dissolved in 1 ml water/DMF/DMSO (1:1:1;v/v/v). Peptides were line-blotted onto PVDF membranes and tested for immuno-reactivity as described above.
Based on the sequence of the epitope identified in the digested proteins, a number of peptides were synthesized by the method described in 1.8 above. The synthesized peptides were then evaluated for their binding activity to SDAs as compared to NSDAs as described above.

[4] = system: PAAs obtained from schizophrenic patients (SDA); experiment: Binding of peptide to isolated PAAs from schizophrenic patients; parameters: species or system human
Protocol: as §1, §2
(§6) Various peptides were synthesized on Abimed 522 at a 10 micromol scale by Eurosequence b.v. Peptides were routinely dissolved in 1 ml water/DMF/DMSO (1:1:1;v/v/v). […]

[5] = system: PAAs obtained from non-schizophrenic individuals; experiment: Binding of peptide to isolated PAAs from non-schizophrenic individuals; parameters: species or system human; conditions: isolated PAAs from eight different non-schizophrenic individuals, FIG. 1B
Protocol: as §1, §2, §6

[6] = system: SDA in plasma samples obtained from schizophrenic patients; experiment: Binding of peptide to plasma samples from schizophrenic patients; parameters: species or system human; conditions: plasma samples of five schizophrenic patients, FIG. 2A
Protocol: as §2, §5
(§7) The capability of Peptide 14 (SEQ ID NO: 3) to bind SDA in plasma samples obtained from schizophrenic patients was then tested. […] Peptide 14 (SEQ ID NO: 10) was used as a negative control.

[7] = system: NSDA in plasma samples from non-schizophrenic individuals; experiment: Binding of peptide to plasma samples from non-schizophrenic individuals; parameters: species or system human; conditions: plasma samples of fifteen non-schizophrenic individuals, FIG. 2B
Protocol: as §2, §5, §7

Substance	Activity [3]	also measured
G-3-P-Dehydrogenase from chicken: glyceraldehyde-3-phosphate dehydrogenase (G3PD) enzyme from chicken		Patients (n = 8) Positive [1]: 7/8; Controls (n = 8) Positive [2]: 2/8
G-3-P-Dehydrogenase from pig: glyceraldehyde-3-phosphate dehydrogenase (G3PD) enzyme from pig		Patients (n = 8) Positive [1]: 8/8; Controls (n = 8) Positive [2]: 1/8
LVVGLCTCQIKTGPAC (peptide capable of binding antibodies that are found in elevated levels in body fluids of schizophrenic patients.) [SEQ ID NO: 3]	No	ranking of binding to antibodies found in high levels in schizophrenic patients ([3]; among the synthesized peptides): most capable of binding; PAAs from schizophrenic patients positively bound ([4]; isolated PAAs from eight different schizophrenic patients, FIG. 1A): seven out of eight; binding activity to SDA, dimer form versus non-dimer form ([4]; ring via two cysteins and dimer via free cystein after overnight in water/DMF/DMSO): the dimer form of the peptide was much more active in binding SDAs than the non-dimer form; binding to PAAs from non-schizophrenic individuals [5]: did not bind; SDA in plasma of schizophrenic patients positively bound [6]: four out of five; plasma samples of non-schizophrenic individuals whose NSDA was not bound [7]: fourteen out of fifteen
SGETEDTFIADLVVGLCTGQIKTGAPCR (being the immunologically active epitope) [SEQ ID NO: 2]		immunological activity of peptide from enzymatic digest of Enolase ([3]; binding SDAs to a higher extent than NSDAs, amino acids 372-399): immunologically active
5 (ADLVVGLCTGQIKTGAPCR; peptide capable of binding antibodies that are found in elevated levels in body fluids of schizophrenic patients.) [compound 5]	YES	
13 (LVVGLCTGQIKTGAPC; peptide capable of binding antibodies that are found in elevated levels in body fluids of schizophrenic patients.) [compound 13]	No	
11 (VVGLCTGQIKTGAPCR; peptide capable of binding antibodies that are found in elevated levels in body fluids of schizophrenic patients.) [compound 11]	No	
6 (DLVVGLCTGQIKTGAPCR; peptide capable of binding antibodies that are found in elevated levels in body fluids of schizophrenic patients.) [compound 6]	YES	
4 (IADLVVGLCTGQIKTGAPCR; peptide capable of binding antibodies that are found in elevated levels in body fluids of schizophrenic patients.) [compound 4]	YES	
G-3-P-Dehydrogenase from human: glyceraldehyde-3-phosphate dehydrogenase (G3PD) enzyme from human		Patients (n = 8) Positive [1]: 7/8; Controls (n = 8) Positive [2]: 1/8
10 (SGETEDTFIADLVVGLCTGQ; peptide capable of binding antibodies that are found in elevated levels in body fluids of schizophrenic patients.) [compound 10]	No	
15 (LVVGLCTGQIKTGPAC; peptide capable of binding antibodies that are found in elevated levels in body fluids of schizophrenic patients.) [compound 15]	No	
12 (CTGQIKTGAPCR; peptide capable of binding antibodies that are found in elevated levels in body fluids of schizophrenic patients.) [compound 12]	No	
3 (LVVGLCTCQIKTGPAC; peptide capable of binding antibodies that are found in elevated levels in body fluids of schizophrenic patients.) [compound 3]	YES	
8 (LVVGLCTGQIKTGPACR; peptide capable of binding antibodies that are found in elevated levels in body fluids of schizophrenic patients.) [compound 8]	YES	
9 (LVVGLCTPQIKTGPACR; peptide capable of binding antibodies that are found in elevated levels in body fluids of schizophrenic patients.) [compound 9]	YES	
2 (SGETEDTFIADLVVGLCTGQIKTGAPCR; being the immunologically active epitope) [compound 2]	YES	
7 (LVVGLCTGQIKTGAPCR; peptide capable of binding antibodies that are found in elevated levels in body fluids of schizophrenic patients.) [compound 7]	YES	
